{"source": "patent US20130202712A1", "about": "“Compositions And Methods For Treating Or Preventing Immuno-Inflammatory Disease” (VINDICO NANOBIO TECHNOLOGY, INC., priority 2010, published 2013)", "origin": "cited, not measured here", "settings": "free resveratrol"}
{"smiles": "Oc1ccc(C=Cc2cc(O)cc(O)c2)cc1", "note": "[resveratrol, 3,5,4′-trihydroxystilbene]", "values": [{"measurement": "Solubility in water", "result": "very low solubility in water"}]}
